Laboratory results: ChEMBL document CHEMBL1139148, “N-Phenyl-N'-(2-chloroethyl)urea analogues of combretastatin A-4: Is the N-phenyl-N'-(2-chloroethyl)urea pharmacophore mimicking the trimethoxy phenyl moiety?” (2007)

What was measured:
Assay type in all cases: functional
M21 [1] = test: Induction of apoptosis in human M21 cells at 24 uM after 24 hrs
MDA-MB-231 = test: Growth inhibition of human MDA-MB-231 cells
M21 [2] = test: Cell cycle arrest in human M21 cells assessed as accumulation at G1 phase at 80 uM after 24 hrs
M21 [3] = test: Induction of apoptosis in human M21 cells at 200 uM after 24 hrs
M21 [4] = test: Cell cycle arrest in human M21 cells assessed as accumulation at S phase at 80 uM after 24 hrs
M21 [5] = test: Cell cycle arrest in human M21 cells assessed as accumulation at S phase at 24 uM after 24 hrs
MCF7 = test: Growth inhibition of human MCF7 cells
M21 [6] = test: Cell cycle arrest in human M21 cells assessed as accumulation at G2/M phase at 80 uM after 24 hrs
HT-29 = test: Growth inhibition of human HT29 cells
M21 [7] = test: Cell cycle arrest in human M21 cells assessed as accumulation at S phase at 200 uM after 24 hrs
M21 [8] = test: Growth inhibition of human M21 cells
M21 [9] = test: Cell cycle arrest in human M21 cells assessed as accumulation at G2/M phase at 200 uM after 24 hrs
M21 [10] = test: Induction of apoptosis in human M21 cells at 80 uM after 24 hrs
M21 [11] = test: Cell cycle arrest in human M21 cells assessed as accumulation at G1 phase at 200 uM after 24 hrs
M21 [12] = test: Cell cycle arrest in human M21 cells assessed as accumulation at G2/M phase at 24 uM after 24 hrs
M21 [13] = test: Cell cycle arrest in human M21 cells assessed as accumulation at G1 phase at 24 uM after 24 hrs
M21 [14] = test: Cell cycle arrest in human M21 cells assessed as accumulation at S phase at 21 uM after 24 hrs
M21 [15] = test: Cell cycle arrest in human M21 cells assessed as accumulation at G1 phase at 53 uM after 24 hrs
M21 [16] = test: Cell cycle arrest in human M21 cells assessed as accumulation at G2/M phase at 21 uM after 24 hrs
M21 [17] = test: Cell cycle arrest in human M21 cells assessed as accumulation at G2/M phase at 53 uM after 24 hrs
M21 [18] = test: Induction of apoptosis in human M21 cells at 6 uM after 24 hrs
M21 [19] = test: Induction of apoptosis in human M21 cells at 21 uM after 24 hrs
M21 [20] = test: Induction of apoptosis in human M21 cells at 53 uM after 24 hrs
M21 [21] = test: Cell cycle arrest in human M21 cells assessed as accumulation at S phase at 53 uM after 24 hrs
M21 [22] = test: Cell cycle arrest in human M21 cells assessed as accumulation at G1 phase at 6 uM after 24 hrs
M21 [23] = test: Cell cycle arrest in human M21 cells assessed as accumulation at G2/M phase at 6 uM after 24 hrs
M21 [24] = test: Cell cycle arrest in human M21 cells assessed as accumulation at S phase at 6 uM after 24 hrs
M21 [25] = test: Cell cycle arrest in human M21 cells assessed as accumulation at G1 phase at 21 uM after 24 hrs
M21 [26] = test: Cell cycle arrest in human M21 cells assessed as accumulation at G2/M phase at 0.050 uM after 24 hrs
M21 [27] = test: Cell cycle arrest in human M21 cells assessed as accumulation at G1 phase at 0.050 uM after 24 hrs
M21 [28] = test: Cell cycle arrest in human M21 cells assessed as accumulation at G1 phase at 0.125 uM after 24 hrs
M21 [29] = test: Induction of apoptosis in human M21 cells at 0.050 uM after 24 hrs
M21 [30] = test: Cell cycle arrest in human M21 cells assessed as accumulation at S phase at 0.125 uM after 24 hrs
M21 [31] = test: Induction of apoptosis in human M21 cells at 0.015 uM after 24 hrs
M21 [32] = test: Cell cycle arrest in human M21 cells assessed as accumulation at G1 phase at 0.015 uM after 24 hrs
M21 [33] = test: Cell cycle arrest in human M21 cells assessed as accumulation at S phase at 0.015 uM after 24 hrs
M21 [34] = test: Induction of apoptosis in human M21 cells at 0.125 uM after 24 hrs
M21 [35] = test: Cell cycle arrest in human M21 cells assessed as accumulation at G2/M phase at 0.015 uM after 24 hrs
M21 [36] = test: Cell cycle arrest in human M21 cells assessed as accumulation at G2/M phase at 0.125 uM after 24 hrs
M21 [37] = test: Cell cycle arrest in human M21 cells assessed as accumulation at S phase at 0.050 uM after 24 hrs

| GI50 (MDA-MB-231) [µM] | GI50 (MCF7) [µM] | GI50 (HT-29) [µM] | SMILES | Activity (M21 [1]) [%] | Activity (M21 [2]) [%] | Activity (M21 [3]) [%] | Activity (M21 [4]) [%] | Activity (M21 [5]) [%] | Activity (M21 [6]) [%] | Activity (M21 [7]) [%] | GI50 (M21 [8]) [µM] | Activity (M21 [9]) [%] | Activity (M21 [10]) [%] | Activity (M21 [11]) [%] | Activity (M21 [12]) [%] | Activity (M21 [13]) [%] | other results |
| --- | --- | --- | --- | --- | --- | --- | --- | --- | --- | --- | --- | --- | --- | --- | --- | --- | --- |
| 16.5 | 28.2 | 68.2 | COc1ccc(/C=C/c2cccc(NC(=O)NCCCl)c2)cc1O | 8.3 | 38.1 | 4.5 | 18.7 | 16.6 | 21.3 | 19 | 22.7 | 19.6 | 5.3 | 40.3 | 22.5 | 37.2 | – |
| 4.1 | 11.6 | 9.6 | COc1ccc(CCc2cccc(NC(=O)NCCCl)c2)cc1O | 12.5 | 15.2 | 6.9 | 16.4 | 20.7 | 34.9 | 15.7 | 4.7 | 42.6 | 18.7 | 13.5 | 27.5 | 23.8 | – |
| 4.9 | 4.5 | 9.2 | COc1ccc(/C=C\c2cccc(NC(=O)NCCCl)c2)cc1O | 44.8 | 18.4 | 21.7 | 16.4 | 12.3 | 35.5 | 10.5 | 4 | 41.3 | 15 | 14.7 | 12.5 | 22.1 | – |
| 11 | 15.9 | 15.3 | COc1ccc(CCc2ccc(NC(=O)NCCCl)cc2)cc1O | 2.8 | 15.5 | 2.6 | 13.4 | 9.9 | 45.1 | 16.3 | 16.3 | 47.9 | 2.3 | 7.2 | 30.2 | 37.8 | – |
| 0.86 | 1.65 | 2.4 | COc1ccc(/C=C\c2ccc(NC(=O)NCCCl)cc2)cc1O | – | – | – | – | – | – | – | 0.97 | – | – | – | – | – | Activity (M21 [14]): 9.7%; Activity (M21 [15]): 8.1%; Activity (M21 [16]): 47.2%; Activity (M21 [17]): 48%; Activity (M21 [18]): 10.7%; Activity (M21 [19]): 17.6%; Activity (M21 [20]): 9.7%; Activity (M21 [21]): 12.5%; Activity (M21 [22]): 11.4%; Activity (M21 [23]): 43.3%; Activity (M21 [24]): 15.8%; Activity (M21 [25]): 6.8% |
| 17.4 | 14 | 1.18 | COc1ccc(/C=C/c2ccc(NC(=O)NCCCl)cc2)cc1O | 9.9 | 38.8 | 11.9 | 15.6 | 12.9 | 21 | 21.9 | 8.38 | 12.4 | 5.5 | 37.4 | 19.5 | 38.1 | – |
| 0.23 | 0.48 | 0.16 | O=C(NCCCl)Nc1cccc(CCCCCO)c1 | – | – | – | – | – | – | – | 0.27 | – | – | – | – | – | – |
| 0.002 | 0.003 | 0.089 | COc1ccc(/C=C\c2cc(OC)c(OC)c(OC)c2)cc1O [COMBRETASTATIN A4] | – | – | – | – | – | – | – | 0.002 | – | – | – | – | – | Activity (M21 [26]): 40.6%; Activity (M21 [27]): 10.1%; Activity (M21 [28]): 8.2%; Activity (M21 [29]): 15.8%; Activity (M21 [30]): 14.7%; Activity (M21 [31]): 10.7%; Activity (M21 [32]): 9.4%; Activity (M21 [33]): 15%; Activity (M21 [34]): 11.6%; Activity (M21 [35]): 46.4%; Activity (M21 [36]): 45.4%; Activity (M21 [37]): 14.6% |
